This experiment deals with T1, PIk1 (Homo sapiens, UniProt P53350).
T1 construct: His tag (histidine tag) (N); made in house; host or cells: SF9 insect cells
Briefly: PIk1 kinase activity inhibition assay (33P incorporation into alpha casein, flash plates). In kind it is biochemical. Particulars: recombinant N-terminally histidine-tagged PIk1, alpha casein as substrate, 100 nM Li-ATP, 80 minutes at 30°C. An outline of the steps: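 N-terminally His-tagged human Plk1 from SF9 cells (50–100 ng/well) phosphorylated alpha casein with 100 nM Li-ATP plus 33P-ATP in HEPES pH 7.5, MgCl2/MnCl2 buffer for 80 minutes at 30°C. After H3PO4 stop and washing, casein-bound 33P was counted on scintillator-coated flash plates to derive IC50.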

The structures appear in SMILES notation.

T1 sequence (P53350 whole entry): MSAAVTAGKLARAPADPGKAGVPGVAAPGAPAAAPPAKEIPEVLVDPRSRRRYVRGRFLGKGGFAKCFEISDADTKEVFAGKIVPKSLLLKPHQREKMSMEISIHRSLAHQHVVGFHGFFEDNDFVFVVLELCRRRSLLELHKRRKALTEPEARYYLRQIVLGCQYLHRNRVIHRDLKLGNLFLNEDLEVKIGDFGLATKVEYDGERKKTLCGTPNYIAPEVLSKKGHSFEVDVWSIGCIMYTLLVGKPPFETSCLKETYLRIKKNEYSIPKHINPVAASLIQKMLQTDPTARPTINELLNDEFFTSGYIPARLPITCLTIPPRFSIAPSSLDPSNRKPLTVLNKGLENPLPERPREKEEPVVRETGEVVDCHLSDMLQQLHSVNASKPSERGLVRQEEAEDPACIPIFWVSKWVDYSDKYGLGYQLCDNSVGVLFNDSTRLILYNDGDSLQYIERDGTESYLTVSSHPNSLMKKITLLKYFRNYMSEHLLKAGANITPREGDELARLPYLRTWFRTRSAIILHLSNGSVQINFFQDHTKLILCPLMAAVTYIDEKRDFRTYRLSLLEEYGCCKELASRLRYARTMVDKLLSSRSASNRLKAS

The term IC50 denotes the midpoint of a concentration-inhibition curve. For the compound `COc1cc(C(=O)NC2CCN(C)CC2)ccc1Nc1ncc2c(n1)c(-c1ccc[nH]1)c(OCC1CC1)c(=O)n2C` [Example 73, 4-{[7-(cyclopropylmethoxy)-5-methyl-6-oxo-8-(1H-pyrrol-2-yl)-5,6-dihydro-pyrido[3,2-d]pyrimidin-2-yl]amino}-3-methoxy-N-(1-methylpiperidin-4-yl)benzamide], the IC50 was below 10 nM.

For the compound `COc1cc(C(=O)NC2CCN(C)CC2)ccc1Nc1ncc2c(n1)c(-c1ccccn1)c(OCC1CC1)c(=O)n2C` [Example 74, 4-{[7-(cyclopropylmethoxy)-5-methyl-6-oxo-8-pyridin-2-yl-5,6-dihydro-pyrido[3,2-d]pyrimidin-2-yl]amino}-3-methoxy-N-(1-methylpiperidin-4-yl)benzamide], the IC50 is below 10 nM.

For `CCOc1cc(C(=O)NC2CCN(C)CC2)ccc1Nc1ncc2c(n1)c(-c1ccsc1)c(OCC1CC1)c(=O)n2C` [Example 75, 4-{[7-(cyclopropylmethoxy)-5-methyl-6-oxo-8-(3-thienyl)-5,6-dihydro-pyrido[3,2-d]pyrimidin-2-yl]amino}-3-ethoxy-N-(1-methylpiperidin-4-yl)benzamide], the IC50 is below 10 nM.

As to `COc1cc(C(=O)NC2CCN(C)CC2)ccc1Nc1ncc2c(n1)c(-c1cc[nH]c1)c(OCC1CC1)c(=O)n2C` [Example 76, 4-{[7-(cyclopropylmethoxy)-5-methyl-6-oxo-8-(1H-pyrrol-3-yl)-5,6-dihydro-pyrido[3,2-d]pyrimidin-2-yl]amino}-3-methoxy-N-(1-methylpiperidin-4-yl)benzamide], the IC50 was below 10 nM.

(Values after patent publication EP2100894A1, “Pyridopyrimidines used as Plk1 (polo-like kinase) inhibitors” (4SC AG, priority 2008, dated 2009).)
